According to PMC9293083 (Chemistry (Weinheim an Der Bergstrasse, Germany), 2021):

Experiments:
[1] = test system: A549 cells; assay type: cell-based, human
[2] = test system: lung mouse embryonic fibroblasts (LMEFs); assay type: cell-based; conditions: 10 μM, 22 h
[3] = test system: A549 (lung carcinoma)
[4] = test system: pBR322 plasmid DNA; assay type: binding
[5] = test system: A549 (lung carcinoma); conditions: read-out: IC50 A549; cited from earlier work
[6] = test system: HeLa (cervix carcinoma); conditions: read-out: IC50 HeLa; cited from earlier work
[7] = test system: tubulin; assay type: cell-based, human

CN(C)c1ccc(-c2nc3ccccc3s2)cc1 [Me2N‐pbtH, 2‐(4‐dimethylaminophenyl)benzothiazole]
cellular internalization (intracellular green fluorescence) [1]: successful internalization | colocalization with Golgi apparatus marker BODIPY TR C5 ceramide [1]: most of the signal colocalized with the Golgi apparatus marker | time to bright green fluorescence (internalization) [1]: 2 to 5 min | accumulation in endosomal/lysosomal compartments (LysoTracker) [2]: minor accumulation in the endosomal/lysosomal compartments | accumulation in mitochondria (MitoTracker) [2]: lack of accumulation in mitochondria | cytotoxic effects against A549 cells [3]: did not show cytotoxic effects

N.N.[Cl][Pt][Cl] [cisplatin, reference compound]
electrophoretic mobility of plasmid forms [4]: electrophoretic shift | IC50 [5]: 6.45 ± 0.47 µM | IC50 [6]: 13.6 ± 0.99 µM

COC(=O)Nc1nc2ccc(C(=O)c3cccs3)cc2[nH]1 [nocodazole, reference compound]
tubulin depolymerization / microtubule disassembly [7]: notable microtubule disassembly
